Reference: patent US12723063B2, “GIPR-agonist compounds” (Eli Lilly and Company, priority 2019, dated 2026)
*1 amine or outer side, *2 acyl side, *3 side chain or, on linkers, in order; H or OH if unused. Where a SMILES comes first, the peptide text is derived from it. Side-chain parts run from the residue outwards. [ ]: non-standard residue; d: D form. The star is where a group is joined. C20 diacid = O=C(O)CCCCCCCCCCCCCCCCCCC(=O)*; C18 diacid = O=C(O)CCCCCCCCCCCCCCCCC(=O)*; γGlu = O=C(O)[C@H](CCC(=O)[*:2])N[*:1]; 4Pal = N[C@@H](Cc1ccncc1)C(=O)O; αMeL = CC(C)C[C@](C)(N)C(=O)O; Iva = CC[C@](C)(N)C(=O)O; AEEA = NCCOCCOCC(=O)O; Aib = CC(C)(N)C(=O)O

Tests used:
Experiment in all cases: cAMP functional assay (HTRF) in HEK293 cells in presence of 0.1% casein
Format in all cases: cell-based
[1] = target: T1, human GLP-1 receptor (GLP-1R) (Homo sapiens, UniProt P43220); details: HEK293 cells expressing human GLP-1R, geometric mean, read-out: hGLP1R cAMP Rel EC50 nM (SEM, n)
T1 construct: expressed in transfected cells; host or cells: HEK293
T1 sequence (P43220 24-463): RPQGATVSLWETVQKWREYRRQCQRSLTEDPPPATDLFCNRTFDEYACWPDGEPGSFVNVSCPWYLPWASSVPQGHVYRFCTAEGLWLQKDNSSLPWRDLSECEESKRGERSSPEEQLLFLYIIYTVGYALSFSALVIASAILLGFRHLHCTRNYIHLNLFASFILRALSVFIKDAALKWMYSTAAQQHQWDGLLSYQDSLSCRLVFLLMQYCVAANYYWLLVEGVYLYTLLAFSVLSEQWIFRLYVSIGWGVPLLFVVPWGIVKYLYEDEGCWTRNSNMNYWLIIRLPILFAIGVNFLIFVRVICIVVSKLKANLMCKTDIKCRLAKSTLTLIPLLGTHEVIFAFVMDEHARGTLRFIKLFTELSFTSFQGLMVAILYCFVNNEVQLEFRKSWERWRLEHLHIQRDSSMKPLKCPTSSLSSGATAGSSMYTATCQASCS

[2] = target: T2, human glucagon receptor (GcgR) (Homo sapiens, UniProt P47871); details: HEK293 cells expressing human GcgR, geometric mean, read-out: hGcgR cAMP Rel EC50 nM (SEM, n)
T2 construct: expressed in transfected cells; host or cells: HEK293
T2 sequence (P47871 26-477): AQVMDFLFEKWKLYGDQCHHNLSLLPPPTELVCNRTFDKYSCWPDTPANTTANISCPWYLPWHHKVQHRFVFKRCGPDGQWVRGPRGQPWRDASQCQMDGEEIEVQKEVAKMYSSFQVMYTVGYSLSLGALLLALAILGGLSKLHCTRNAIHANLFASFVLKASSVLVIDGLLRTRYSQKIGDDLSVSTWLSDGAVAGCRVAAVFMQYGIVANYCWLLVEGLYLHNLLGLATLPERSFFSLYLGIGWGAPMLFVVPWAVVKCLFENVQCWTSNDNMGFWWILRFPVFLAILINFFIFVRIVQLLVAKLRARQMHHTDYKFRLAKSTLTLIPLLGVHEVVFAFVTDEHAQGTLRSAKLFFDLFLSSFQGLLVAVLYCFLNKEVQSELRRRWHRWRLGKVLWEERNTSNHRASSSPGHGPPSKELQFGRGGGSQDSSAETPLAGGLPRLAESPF

[3] = target: T3, human glucose-dependent insulinotropic peptide receptor (GIPR) (Homo sapiens, UniProt P48546); details: HEK293 cells expressing human GIPR, geometric mean, read-out: hGIPR cAMP Rel EC50 nM (SEM, n)
T3 construct: expressed in transfected cells; host or cells: HEK293
T3 sequence (P48546 22-466): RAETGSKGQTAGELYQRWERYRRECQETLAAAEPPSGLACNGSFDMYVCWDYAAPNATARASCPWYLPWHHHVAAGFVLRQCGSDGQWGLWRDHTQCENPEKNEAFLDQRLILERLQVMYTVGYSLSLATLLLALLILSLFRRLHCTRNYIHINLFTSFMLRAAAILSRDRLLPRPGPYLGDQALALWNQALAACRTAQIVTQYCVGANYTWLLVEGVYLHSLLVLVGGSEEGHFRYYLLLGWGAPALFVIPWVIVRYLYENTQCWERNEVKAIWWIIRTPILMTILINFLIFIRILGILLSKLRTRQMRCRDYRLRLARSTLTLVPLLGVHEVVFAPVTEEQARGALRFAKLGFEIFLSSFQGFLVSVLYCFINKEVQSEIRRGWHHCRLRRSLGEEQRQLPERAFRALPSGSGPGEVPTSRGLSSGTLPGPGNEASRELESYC

SMILES | EC50 [1] | EC50 [2] | EC50 [3]
CC[C@H](C)[C@H](NC(=O)[C@H](CO)NC(=O)[C@H](Cc1ccc(O)cc1)NC(=O)[C@H](CC(=O)O)NC(=O)[C@H](CO)NC(=O)[C@@H](NC(=O)[C@H](Cc1ccccc1)NC(=O)[C@@H](NC(=O)CNC(=O)[C@H](CCC(=O)O)NC(=O)[C@@H](C)NC(=O)[C@@H](N)Cc1ccc(O)cc1)[C@@H](C)O)[C@@H](C)CC)C(=O)N[C@@H](CC(C)C)C(=O)N[C@@H](CC(C)C)C(=O)N[C@@H](CC(=O)O)C(=O)N[C@@H](CCCCN)C(=O)N[C@@H](CCCCNC(=O)COCCOCCNC(=O)COCCOCCNC(=O)CC[C@H](NC(=O)CCCCCCCCCCCCCCCCCCC(=O)O)C(=O)O)C(=O)N[C@@H](Cc1c[nH]cn1)C(=O)N[C@@H](CCC(N)=O)C(=O)NC(C)(C)C(=O)N[C@@H](CC(=O)O)C(=O)N[C@@H](Cc1ccccc1)C(=O)N[C@H](C(=O)N[C@@H](CC(N)=O)C(=O)N[C@@H](Cc1c[nH]c2ccccc12)C(=O)N[C@@H](CC(C)C)C(=O)N[C@@H](CC(C)C)C(=O)N[C@@H](C)C(=O)N[C@@H](CCC(N)=O)C(=O)NCC(=O)N1CCC[C@H]1C(=O)N[C@@H](CO)C(=O)N[C@@H](CO)C(=O)NCC(=O)N[C@@H](C)C(=O)N1CCC[C@H]1C(=O)N1CCC[C@H]1C(=O)N1CCC[C@H]1C(=O)N[C@@H](CO)C(N)=O)C(C)C [Example 9] (H-Y[dA]EGTFISDYSILLDKK([AEEA-AEEA-γGlu-C20 diacid])HQ[Aib]DFVNWLLAQGPSSGAPPPS-NH2) | > 100 nM | > 5000 nM | 0.165 nM
CC[C@H](C)[C@H](NC(=O)[C@H](CO)NC(=O)[C@H](Cc1ccc(O)cc1)NC(=O)[C@H](CC(=O)O)NC(=O)[C@H](CO)NC(=O)[C@@H](NC(=O)[C@](C)(CC)NC(=O)[C@@H](NC(=O)CNC(=O)[C@H](CCC(=O)O)NC(=O)C(C)(C)NC(=O)[C@@H](N)Cc1ccc(O)cc1)[C@@H](C)O)[C@@H](C)CC)C(=O)N[C@@](C)(CC(C)C)C(=O)N[C@@H](CC(C)C)C(=O)N[C@@H](CC(=O)O)C(=O)N[C@@H](CCCCN)C(=O)N[C@@H](CCCCNC(=O)COCCOCCNC(=O)COCCOCCNC(=O)CC[C@H](NC(=O)CCCCCCCCCCCCCCCCCCC(=O)O)C(=O)O)C(=O)N[C@@H](Cc1c[nH]cn1)C(=O)N[C@@H](CCC(N)=O)C(=O)NC(C)(C)C(=O)N[C@@H](CC(=O)O)C(=O)N[C@@H](Cc1ccccc1)C(=O)N[C@H](C(=O)N[C@@H](CCC(=O)O)C(=O)N[C@@H](Cc1ccncc1)C(=O)N[C@@H](CC(C)C)C(=O)N[C@@H](CC(C)C)C(=O)N[C@@H](CCC(=O)O)C(=O)N[C@H](C(=O)NCC(=O)N1CCC[C@H]1C(=O)N[C@@H](CO)C(=O)N[C@@H](CO)C(=O)NCC(=O)N[C@@H](C)C(=O)N1CCC[C@H]1C(=O)N1CCC[C@H]1C(=O)N1CCC[C@H]1C(=O)N[C@@H](CO)C(N)=O)[C@@H](C)O)C(C)C [Example 75] (H-Y[Aib]EGT[Iva]ISDYSI[αMeL]LDKK([AEEA-AEEA-γGlu-C20 diacid])HQ[Aib]DFVE[4Pal]LLETGPSSGAPPPS-NH2) | > 5000 nM | 2170 nM | 0.0182 nM
CC[C@H](C)[C@H](NC(=O)[C@H](CCCCN)NC(=O)[C@H](CC(=O)O)NC(=O)[C@H](CC(C)C)NC(=O)[C@](C)(CC(C)C)NC(=O)[C@@H](NC(=O)[C@H](CO)NC(=O)[C@H](Cc1ccc(O)cc1)NC(=O)[C@H](CC(=O)O)NC(=O)[C@H](CO)NC(=O)[C@@H](NC(=O)[C@H](Cc1ccccc1)NC(=O)[C@@H](NC(=O)CNC(=O)[C@H](CCC(=O)O)NC(=O)C(C)(C)NC(=O)[C@@H](N)Cc1ccc(O)cc1)[C@@H](C)O)[C@@H](C)CC)[C@@H](C)CC)C(=O)N[C@@H](CCCNC(=N)N)C(=O)N[C@@H](CCC(N)=O)C(=O)NC(C)(C)C(=O)N[C@@H](CC(=O)O)C(=O)N[C@@H](Cc1ccccc1)C(=O)N[C@H](C(=O)N[C@@H](CCC(=O)O)C(=O)N[C@@H](Cc1ccc(O)cc1)C(=O)N[C@@H](CCCCNC(=O)COCCOCCNC(=O)COCCOCCNC(=O)CC[C@H](NC(=O)CCCCCCCCCCCCCCCCCCC(=O)O)C(=O)O)C(=O)N[C@@H](CC(C)C)C(=O)N[C@@H](CCC(=O)O)C(=O)NCC(=O)NCC(=O)N1CCC[C@H]1C(=O)N[C@@H](CO)C(=O)N[C@@H](CO)C(=O)NCC(=O)N[C@@H](C)C(=O)N1CCC[C@H]1C(=O)N1CCC[C@H]1C(=O)N1CCC[C@H]1C(=O)N[C@@H](CO)C(N)=O)C(C)C [Example 115] (H-Y[Aib]EGTFISDYSI[αMeL]LDKIRQ[Aib]DFVEYK([AEEA-AEEA-γGlu-C20 diacid])LEGGPSSGAPPPS-NH2) | > 5000 nM | > 5000 nM | 0.0372 nM
CC[C@H](C)[C@H](NC(=O)[C@H](CO)NC(=O)[C@H](Cc1ccc(O)cc1)NC(=O)[C@H](CC(=O)O)NC(=O)[C@H](CO)NC(=O)[C@@H](NC(=O)[C@H](Cc1ccccc1)NC(=O)[C@@H](NC(=O)CNC(=O)[C@H](CCC(=O)O)NC(=O)[C@@H](C)NC(=O)[C@@H](N)Cc1ccc(O)cc1)[C@@H](C)O)[C@@H](C)CC)C(=O)N[C@@H](CC(C)C)C(=O)N[C@@H](CC(C)C)C(=O)N[C@@H](CC(=O)O)C(=O)N[C@@H](CCCCN)C(=O)N[C@@H](CCCCNC(=O)COCCOCCNC(=O)COCCOCCNC(=O)CC[C@H](NC(=O)CCCCCCCCCCCCCCCCC(=O)O)C(=O)O)C(=O)N[C@@H](C)C(=O)N[C@@H](CCC(N)=O)C(=O)NC(C)(C)C(=O)N[C@@H](CCC(=O)O)C(=O)N[C@@H](Cc1ccccc1)C(=O)N[C@H](C(=O)N[C@@H](CCC(=O)O)C(=O)N[C@@H](Cc1c[nH]c2ccccc12)C(=O)N[C@@H](CC(C)C)C(=O)N[C@@H](CC(C)C)C(=O)N[C@@H](C)C(=O)NCC(=O)NCC(=O)N1CCC[C@H]1C(=O)N[C@@H](CO)C(=O)N[C@@H](CO)C(=O)NCC(=O)N[C@@H](C)C(=O)N1CCC[C@H]1C(=O)N1CCC[C@H]1C(=O)N1CCC[C@H]1C(=O)N[C@@H](CO)C(N)=O)C(C)C [Example 29] (H-Y[dA]EGTFISDYSILLDKK([AEEA-AEEA-γGlu-C18 diacid])AQ[Aib]EFVEWLLAGGPSSGAPPPS-NH2) | > 5000 nM | > 5000 nM | 0.00679 nM
CC[C@H](C)[C@H](NC(=O)[C@H](CO)NC(=O)[C@H](Cc1ccc(O)cc1)NC(=O)[C@H](CC(=O)O)NC(=O)[C@H](CO)NC(=O)[C@@H](NC(=O)[C@H](Cc1ccccc1)NC(=O)[C@@H](NC(=O)CNC(=O)[C@H](CCC(=O)O)NC(=O)C(C)(C)NC(=O)[C@@H](N)Cc1ccc(O)cc1)[C@@H](C)O)[C@@H](C)CC)C(=O)N[C@@H](CC(C)C)C(=O)N[C@@H](CC(C)C)C(=O)N[C@@H](CC(=O)O)C(=O)N[C@@H](CCCCN)C(=O)N[C@@H](CCCCNC(=O)COCCOCCNC(=O)COCCOCCNC(=O)CC[C@H](NC(=O)CCCCCCCCCCCCCCCCC(=O)O)C(=O)O)C(=O)N[C@@H](Cc1c[nH]cn1)C(=O)N[C@@H](CCC(N)=O)C(=O)NC(C)(C)C(=O)N[C@@H](CC(=O)O)C(=O)N[C@@H](Cc1ccccc1)C(=O)N[C@H](C(=O)N[C@@H](CC(N)=O)C(=O)N[C@@H](Cc1ccc(O)cc1)C(=O)N[C@@H](CC(C)C)C(=O)N[C@@H](CC(C)C)C(=O)N[C@@H](C)C(=O)N[C@@H](C)C(=O)NCC(=O)N1CCC[C@H]1C(=O)N[C@@H](CO)C(=O)N[C@@H](CO)C(=O)NCC(=O)N[C@@H](C)C(=O)N1CCC[C@H]1C(=O)N1CCC[C@H]1C(=O)N1CCC[C@H]1C(=O)N[C@@H](CO)C(N)=O)C(C)C [Example 31] (H-Y[Aib]EGTFISDYSILLDKK([AEEA-AEEA-γGlu-C18 diacid])HQ[Aib]DFVNYLLAAGPSSGAPPPS-NH2) | > 5000 nM | 1750 nM | 0.0148 nM
CC[C@H](C)[C@H](NC(=O)[C@H](CCCN)NC(=O)[C@H](CC(=O)O)NC(=O)[C@H](CC(C)C)NC(=O)[C@](C)(CC(C)C)NC(=O)[C@@H](NC(=O)[C@H](CO)NC(=O)[C@H](Cc1ccc(O)cc1)NC(=O)[C@H](CC(=O)O)NC(=O)[C@H](CO)NC(=O)[C@@H](NC(=O)[C@H](Cc1ccccc1)NC(=O)[C@@H](NC(=O)CNC(=O)[C@H](CCC(=O)O)NC(=O)C(C)(C)NC(=O)[C@@H](N)Cc1ccc(O)cc1)[C@@H](C)O)[C@@H](C)CC)[C@@H](C)CC)C(=O)N[C@@H](Cc1c[nH]cn1)C(=O)N[C@@H](CCC(N)=O)C(=O)NC(C)(C)C(=O)N[C@@H](CC(=O)O)C(=O)N[C@@H](Cc1ccccc1)C(=O)N[C@H](C(=O)N[C@H](CCC(=O)O)C(=O)N[C@@H](Cc1ccc(O)cc1)C(=O)N[C@@H](CCCCNC(=O)COCCOCCNC(=O)COCCOCCNC(=O)CC[C@H](NC(=O)CCCCCCCCCCCCCCCCCCC(=O)O)C(=O)O)C(=O)N[C@@H](CC(C)C)C(=O)N[C@@H](CCC(=O)O)C(=O)NCC(=O)NCC(=O)N1CCC[C@H]1C(=O)N[C@@H](CO)C(=O)N[C@@H](CO)C(=O)NCC(=O)N[C@@H](C)C(=O)N1CCC[C@H]1C(=O)N1CCC[C@H]1C(=O)N1CCC[C@H]1C(=O)N[C@@H](CO)C(N)=O)C(C)C [Example 101] | > 5000 nM | > 5000 nM | 0.0396 nM
